# According to US9833497B2, “Human originated EGF domain proteins and use of the same” (CHENGDU SOURCEBIO LIMITED-LIABILITY COMPANY, priority 2013, dated 2017):
# Legend:
# Format in all cases: cell-based
# Moraxella catarrhalis = assay: MIC against Gram-negative bacteria: Moraxella catarrhalis; settings: 5×10^5 CFU/mL
# How it was run: (§1)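 The recombinant human-originated EGF domain proteins were serially diluted two-fold against bacteria at 5×10^5 CFU/mL in LB medium. After shaken incubation at 37° C, the lowest concentration with no bacterial growth was recorded as the MIC.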
# E. coli BL21 = assay: MIC against Gram-negative bacteria: E. coli BL21; settings: 5×10^5 CFU/mL
# How it was run: as §1
# Aeromonas hydrophila = assay: MIC against Gram-negative bacteria: Aeromonas hydrophila; settings: 5×10^5 CFU/mL
# How it was run: as §1
# Citrobacter diversus = assay: MIC against Gram-negative bacteria: Citrobacter diversus; settings: 5×10^5 CFU/mL
# How it was run: as §1
# Klebsiella pneumonia = assay: MIC against Gram-negative bacteria: Klebsiella pneumonia; settings: 5×10^5 CFU/mL
# How it was run: as §1
# Pseudomonas aeruginosa = assay: MIC against Gram-negative bacteria: Pseudomonas aeruginosa; settings: 5×10^5 CFU/mL
# How it was run: as §1
# E. coli DH5α = assay: Antibacterial activity: MIC and growth curve against E. coli DH5α in 96-well plate; settings: minimal inhibitory concentration against E. coli DH5α; 96-well plate, 5×10^5 CFU/mL, 37° C., judged after 8 h
# How it was run: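 Log-phase bacteria (OD600 ~0.5) resuspended in LB at 5×10^5 CFU/mL, exposed to recombinant protein at 50, 25, 12.5 μg/mL final in triplicate, 37 °C shaking at 175 rpm. OD600 read every 30 min; MIC is lowest concentration showing no growth.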
# Serratia marcescens = assay: MIC against Gram-negative bacteria: Serratia marcescens; settings: 5×10^5 CFU/mL
# How it was run: as §1
# Proteus mirabilis = assay: MIC against Gram-negative bacteria: Proteus mirabilis; settings: 5×10^5 CFU/mL
# How it was run: as §1
# Proteus vulgaris = assay: MIC against Gram-negative bacteria: Proteus vulgaris; settings: 5×10^5 CFU/mL
# How it was run: as §1
# Enterobacter cloacae = assay: MIC against Gram-negative bacteria: Enterobacter cloacae; settings: 5×10^5 CFU/mL
# How it was run: as §1
# [1] = Moraxella catarrhalis, 96-well plate, 37° C., 10 h
# [2] = Aeromonas hydrophila, 96-well plate, 37° C., 10 h
# [3] = Citrobacter diversus, 96-well plate, 37° C., 10 h
# [4] = Klebsiella pneumonia, 96-well plate, 37° C., 10 h
# [5] = Pseudomonas aeruginosa, 96-well plate, 37° C., 10 h
# [6] = Serratia marcescens, 96-well plate, 37° C., 10 h
# [7] = Proteus mirabilis, 96-well plate, 37° C., 10 h
# [8] = Proteus vulgaris, 96-well plate, 37° C., 10 h
# [9] = Enterobacter cloacae, 96-well plate, 37° C., 10 h
# [10] = 10 h cultivation at 37° C., two-fold serial dilution
substance,measurement,setting,value
PRT97 (DSRGCARWCPQNSSCVNATACRCNPGFSSFSEIITTPTETCD; listed as Homo sapiens),MIC (μg/mL) M. catarrhalis,Moraxella catarrhalis; [1],100 µg/mL
same,MIC (μg/mL) E. coli BL21,"E. coli BL21; 96-well plate, 37° C., 10 h",12.5 µg/mL
same,MIC (μg/mL) A. hydrophila,Aeromonas hydrophila; [2],12.5 µg/mL
same,MIC (μg/mL) C. diversus,Citrobacter diversus; [3],50 µg/mL
same,MIC (μg/mL) K. pneumonia,Klebsiella pneumonia; [4],12.5 µg/mL
same,MIC (μg/mL) P. aeruginosa,Pseudomonas aeruginosa; [5],25 µg/mL
same,MIC,E. coli DH5α,25 µg/mL
same,MIC (μg/mL) S. marcescens,Serratia marcescens; [6],50 µg/mL
same,MIC (μg/mL) P. mirabilis,Proteus mirabilis; [7],50 µg/mL
same,MIC (μg/mL) P. vulgaris,Proteus vulgaris; [8],12.5 µg/mL
same,MIC (μg/mL) E. cloacae,Enterobacter cloacae; [9],12.5 µg/mL
PRT680 (DVNECAEGSPCSPGWCENLPGSFRCTCAQGYAPAPDGRSCL; listed as Homo sapiens),MIC M. catarrhalis,"Moraxella catarrhalis; 96-well plate, 37° C., 10 h",50 µg/mL
same,MIC E. coli BL21,"E. coli BL21; 96-well plate, 37° C., 10 h",25 µg/mL
same,MIC A. hydrophila,"Aeromonas hydrophila; 96-well plate, 37° C., 10 h",12.5 µg/mL
same,MIC C. diversus,"Citrobacter diversus; 96-well plate, 37° C., 10 h",25 µg/mL
same,MIC K. pneumonia,"Klebsiella pneumonia; 96-well plate, 37° C., 10 h",50 µg/mL
same,MIC P. aeruginosa,"Pseudomonas aeruginosa; 96-well plate, 37° C., 10 h",25 µg/mL
same,MIC,E. coli DH5α,12.5 µg/mL
same,MIC S. marcescens,"Serratia marcescens; 96-well plate, 37° C., 10 h",25 µg/mL
same,MIC P. mirabilis,"Proteus mirabilis; 96-well plate, 37° C., 10 h",12.5 µg/mL
same,MIC P. vulgaris,"Proteus vulgaris; 96-well plate, 37° C., 10 h",50 µg/mL
same,MIC E. cloacae,"Enterobacter cloacae; 96-well plate, 37° C., 10 h",25 µg/mL
PRT202 (KSTNCSSKCKGHAVCDHELQCQCEEGWIPPDCD; listed as Homo sapiens),MIC (μg/mL) M. catarrhalis,"Moraxella catarrhalis; M. catarrhalis, 10 h cultivation at 37° C.",12.5 µg/mL
same,MIC (μg/mL) E. coli BL21,E. coli BL21; 10 h cultivation at 37° C.,12.5 µg/mL
same,MIC (μg/mL) A. hydrophila,"Aeromonas hydrophila; A. hydrophila, 10 h cultivation at 37° C.",12.5 µg/mL
same,MIC (μg/mL) C. diversus,"Citrobacter diversus; C. diversus, 10 h cultivation at 37° C.",12.5 µg/mL
same,MIC (μg/mL) K. pneumonia,"Klebsiella pneumonia; K. pneumonia, 10 h cultivation at 37° C.",12.5 µg/mL
same,MIC (μg/mL) P. aeruginosa,"Pseudomonas aeruginosa; P. aeruginosa, 10 h cultivation at 37° C.",12.5 µg/mL
same,MIC,E. coli DH5α,25 µg/mL
same,MIC (μg/mL) S. marcescens,"Serratia marcescens; S. marcescens, 10 h cultivation at 37° C.",25 µg/mL
same,MIC (μg/mL) P. mirabilis,"Proteus mirabilis; P. mirabilis, 10 h cultivation at 37° C.",25 µg/mL
same,MIC (μg/mL) P. vulgaris,"Proteus vulgaris; P. vulgaris, 10 h cultivation at 37° C.",12.5 µg/mL
same,MIC (μg/mL) E. cloacae,"Enterobacter cloacae; E. cloacae, 10 h cultivation at 37° C.",12.5 µg/mL
PRT1150 (HVPWCAHHLCRNNGTCISDNENLFCECPRLYSGK; listed as Homo sapiens),MIC M. catarrhalis,Moraxella catarrhalis; [10],12.5 µg/mL
same,MIC E. coli BL21,E. coli BL21; [10],50 µg/mL
same,MIC A. hydrophila,Aeromonas hydrophila; [10],50 µg/mL
same,MIC C. diversus,Citrobacter diversus; [10],25 µg/mL
same,MIC K. pneumonia,Klebsiella pneumonia; [10],50 µg/mL
same,MIC P. aeruginosa,Pseudomonas aeruginosa; [10],12.5 µg/mL
same,MIC,E. coli DH5α,12.5 µg/mL
same,MIC S. marcescens,Serratia marcescens; [10],25 µg/mL
same,MIC P. mirabilis,Proteus mirabilis; [10],25 µg/mL
same,MIC P. vulgaris,Proteus vulgaris; [10],50 µg/mL
same,MIC E. cloacae,Enterobacter cloacae; [10],12.5 µg/mL
PRT71 (VDACHLNPCENMGACVRSPGSPQGYVCECGPSHYGPYCE; listed as Homo sapiens),MIC (μg/mL) M. catarrhalis,Moraxella catarrhalis; [1],50 µg/mL
same,MIC (μg/mL) E. coli BL21,"E. coli BL21; 96-well plate, 37° C., 10 h",25 µg/mL
same,MIC (μg/mL) A. hydrophila,Aeromonas hydrophila; [2],25 µg/mL
same,MIC (μg/mL) C. diversus,Citrobacter diversus; [3],12.5 µg/mL
same,MIC (μg/mL) K. pneumonia,Klebsiella pneumonia; [4],25 µg/mL
same,MIC (μg/mL) P. aeruginosa,Pseudomonas aeruginosa; [5],12.5 µg/mL
same,MIC,E. coli DH5α,50 µg/mL
same,MIC (μg/mL) S. marcescens,Serratia marcescens; [6],12.5 µg/mL
same,MIC (μg/mL) P. mirabilis,Proteus mirabilis; [7],12.5 µg/mL
same,MIC (μg/mL) P. vulgaris,Proteus vulgaris; [8],12.5 µg/mL
same,MIC (μg/mL) E. cloacae,Enterobacter cloacae; [9],50 µg/mL
PRT635 (DINECLEDKSVCQRGDCINTAGSYDCTCPDGFQLDDNKTCQ; listed as Homo sapiens),MIC M. catarrhalis,"Moraxella catarrhalis; 96-well plate, 37° C., 10 h",12.5 µg/mL
same,MIC E. coli BL21,"E. coli BL21; 96-well plate, 37° C., 10 h",25 µg/mL
same,MIC A. hydrophila,"Aeromonas hydrophila; 96-well plate, 37° C., 10 h",25 µg/mL
same,MIC C. diversus,"Citrobacter diversus; 96-well plate, 37° C., 10 h",12.5 µg/mL
same,MIC K. pneumonia,"Klebsiella pneumonia; 96-well plate, 37° C., 10 h",25 µg/mL
same,MIC P. aeruginosa,"Pseudomonas aeruginosa; 96-well plate, 37° C., 10 h",12.5 µg/mL
same,MIC,E. coli DH5α,12.5 µg/mL
same,MIC S. marcescens,"Serratia marcescens; 96-well plate, 37° C., 10 h",25 µg/mL
same,MIC P. mirabilis,"Proteus mirabilis; 96-well plate, 37° C., 10 h",25 µg/mL
same,MIC P. vulgaris,"Proteus vulgaris; 96-well plate, 37° C., 10 h",12.5 µg/mL
same,MIC E. cloacae,"Enterobacter cloacae; 96-well plate, 37° C., 10 h",12.5 µg/mL
PRT1158 (IQTSCESFPLRNNATCKKCEKDYPCSCISGFTEKNCE; listed as Homo sapiens),MIC M. catarrhalis,Moraxella catarrhalis; [10],50 µg/mL
same,MIC E. coli BL21,E. coli BL21; [10],12.5 µg/mL
same,MIC A. hydrophila,Aeromonas hydrophila; [10],50 µg/mL
same,MIC C. diversus,Citrobacter diversus; [10],12.5 µg/mL
same,MIC K. pneumonia,Klebsiella pneumonia; [10],50 µg/mL
same,MIC P. aeruginosa,Pseudomonas aeruginosa; [10],25 µg/mL
same,MIC,E. coli DH5α,25 µg/mL
same,MIC S. marcescens,Serratia marcescens; [10],25 µg/mL
same,MIC P. mirabilis,Proteus mirabilis; [10],12.5 µg/mL
same,MIC P. vulgaris,Proteus vulgaris; [10],50 µg/mL
same,MIC E. cloacae,Enterobacter cloacae; [10],12.5 µg/mL
